Assay results reported in patent US20130096028A1, “CELL CAPABLE OF EXPRESSING TSLP CONSTANTLY AND AT HIGH LEVEL, AND METHOD FOR SCREENING FOR TSLP MODULATOR UTILIZING THE CELL” (TOHOKU UNIVERSITY, priority 2010, published 2013).

Experiments:
human TSLP mRNA = conditions: human airway epithelial cell lines; cited from earlier work
[1] = tested on: TSLP production of KCMH-1 cell; test: TSLP production of KCMH-1 cells, TSLP in culture supernatant quantified by ELISA; format: cell-based, mouse; conditions: BAY11-7082 10 μM, 24 hours, ELISA (FIG. 5)
Protocol: The KCMH-1 cells were suspended at a concentration of 1×10^5 cells/ml in an MEMU medium containing 10% FBS. 0.5 ml of the cell suspension was inoculated to each well of a 24-well cluster dish. 24 hours later, the medium was removed, and the cells were washed with phosphate-buffered saline (PBS). Then, 0.5 ml of an MEMU medium containing 10% FBS and each concentration of dexamethasone (0.1 or 1 μM) or FK506 ([…]) was added to the cells. 24 hours later, the culture solution was collected, and TSLP in the supernatant was quantified by ELISA (FIG. 2).
The KCMH-1 cells were suspended at a concentration of 1×10^5 cells/ml in an MEMU medium containing 10% FBS. 0.5 ml of the cell suspension was inoculated to each well of a 24-well cluster dish. […] 24 hours later, the culture solution was collected, and TSLP in the supernatant was quantified by ELISA (FIG. 3).
The KCMH-1 cells were suspended at a concentration of 1×10^5 cells/ml in an MEMU medium containing 10% FBS. […] 24 hours later, the culture solution was collected, and TSLP in the supernatant was quantified by ELISA (FIG. 4).
The KCMH-1 cells were suspended at a concentration of 1×10^5 cells/ml in an MEMU medium containing 10% FBS. […] 24 hours later, the culture solution was collected, and TSLP in the supernatant was quantified by ELISA (FIG. 5).

Question: For `CC1=C(/C=C/C(C)=C\C=C\C(C)=C\C(=O)O)C(C)(C)CCC1` [9-cis-retinoic acid], which “expression of human TSLP mRNA by IL-1β” value (human TSLP mRNA) is on record?
Answer: Its value is “inhibits”.

Question: With `Cc1ccc(S(=O)(=O)/C=C/C#N)cc1` [BAY11-7082] as the molecule, how does the “TSLP production in the KCMH-1 cells” value [1] read?
Answer: Its value is “partially inhibited”.
